Paper PMC8256334, “Simultaneous Determination of a Novel PD-L1 Inhibitor, IMMH-010, and Its Active Metabolite, YPD-29B, in Rat Biological Matrices by Polarity-Switching Liquid Chromatography-Tandem Mass Spectrometry: Application to ADME Studies” (Frontiers in Pharmacology, 2021)
Values joined by “and” are separate entries in the source; they are usually repeats but may differ in a detail not shown here. Equal entries are not always repeated. Where two headings read alike, the source gives them in different places.

What was measured:
Format in all cases: in vivo, Sprague-Dawley rats
[1] = Tissue distribution study in rats; settings: for concentration in adrenal gland / concentration in brain / concentration in heart / concentration in kidney / concentration in liver / concentration in lung / concentration in lymph / concentration in plasma / concentration in spleen / concentration in thymus: n = 5; for Kp at 0.25 h / Kp at 0.5 h: female, Sprague-Dawley, rat, oral, i.g. 10 mg/kg IMMH-010 maleate, read-out: T/P (tissue-to-plasma partition)
Method: (§1) Female Sprague-Dawley rats (200 ± 20 g, Vital River, Beijing, China) were kept in standard environmental conditions. Rats were fasted overnight with free access to water and randomly assigned to different groups before the experiments. All animal protocols were approved by the Institute Animal Care and Welfare Committee of the Institute of Materia Medica, Chinese Academy of Medical Sciences and Peking Union Medical College.
The tissue distribution study was performed 15 min, 30 min, 4 h and 12 h after i. g. administration of 10 mg/kg IMMH-010 maleate. Blood was collected and centrifuged at 5,000 rpm for 10 min. The heart, liver, brain, spleen, lung, kidney, adrenal gland, thymus, and lymph were harvested immediately. The tissues were washed with normal saline and blotted dry with filter paper. All samples were stored at -20°C before analysis.

[2] = Excretion study in rats (urine and feces); settings: for excretion in feces, % Of administered dose: i.g. IMMH-010 maleate 10 mg/kg, n = 5
Method: as §1
After i. g. administration of IMMH-010 maleate (10 mg/kg), rats were housed in separate metabolite cages to collect their urine and feces: 0–12, 12–24, 24–36, 36–48, and 48–72 h for urine and 0–24, 24–48, and 48–72 h for feces. Fecal samples were dried in air. Urine samples were stored at −20°C prior to analysis.

[3] = PK study in rats after single i.g. administration of IMMH-010 maleate; settings: rat plasma; for AUC(0-t) / Cmax / MRT last / Tmax / AUC(0-inf) / MRT inf / half-life: female, Sprague-Dawley, po, n = 5; for AUC(0-t) / Cmax / MRT last / AUC(0-inf) / MRT inf / half-life: mean ± SD; for MRT last: read-out: MRT(0-t); for Tmax: median (range); for MRT inf: read-out: MRT(0-∞); for half-life: rat, plasma, read-out: t1/2β (converted)
From the text: as §1
IMMH-010 maleate was suspended in 0.5% sodium carboxymethyl cellulose. The rats were intragastrically (i.g.) administered IMMH-010 maleate at doses of 10, 30, and 100 mg/kg. Blood samples were withdrawn via the orbital plexus into heparinized tubes with NaF at 5, 15, and 30 min and 1, 2, 4, 6, 8, 12, 24, 36, and 48 h. Plasma was immediately prepared by centrifugation at 5,000 rpm for 10 min. All samples were stored at −20°C prior to analysis. The PK parameters of IMMH-010 and YPD-29B were calculated using the Linear Trapezoidal with Linear Interpolation method by WinNonlin software version 6.3 based on a noncompartmental model (Pharsight Corporation, Mountain View, United States ).

[4] = time 0.25 (15 min) after i.g. 10 mg/kg IMMH-010 maleate
[5] = time 0.5 (30 min) after i.g. 10 mg/kg IMMH-010 maleate
[6] = time 4 (4 h) after i.g. 10 mg/kg IMMH-010 maleate
[7] = single i.g. IMMH-010 maleate 10 mg/kg
[8] = single i.g. IMMH-010 maleate 30 mg/kg
[9] = single i.g. IMMH-010 maleate 100 mg/kg

concentration in adrenal gland ([1]; adrenal gland, time 0.25 (15 min) after i.g. 10 mg/kg IMMH-010 maleate): 80.8 ± 47.4 ng/ml or ng/g | concentration in adrenal gland ([1]; adrenal gland, time 0.5 (30 min) after i.g. 10 mg/kg IMMH-010 maleate): 204 ± 132 ng/ml or ng/g | concentration in adrenal gland ([1]; adrenal gland, time 4 (4 h) after i.g. 10 mg/kg IMMH-010 maleate): 41.3 ± 6.9 ng/ml or ng/g | concentration in brain ([1]; brain, time 0.25 (15 min) after i.g. 10 mg/kg IMMH-010 maleate): 6.22 ± 0.34 ng/ml or ng/g | concentration in brain ([1]; brain, time 0.5 (30 min) after i.g. 10 mg/kg IMMH-010 maleate): 3.66 ± 3.35 ng/ml or ng/g | concentration in brain ([1]; brain, time 4 (4 h) after i.g. 10 mg/kg IMMH-010 maleate): BLQ | Kp at 0.25 h ([1]; adrenal gland): 25 | Kp at 0.5 h ([1]; adrenal gland): 51.1 | Kp at 0.25 h ([1]; brain): 1.9 | Kp at 0.5 h ([1]; brain): 0.9 | Kp at 0.25 h ([1]; heart): 5.4 | Kp at 0.5 h ([1]; heart): 9.5 | Kp at 0.25 h ([1]; liver): 3.8 | Kp at 0.5 h ([1]; liver): 6.4 | Kp at 0.5 h ([1]; lung): 0.3 | Kp at 0.25 h ([1]; lymph): 1.7 | Kp at 0.5 h ([1]; lymph): 21.2 | Kp at 0.25 h ([1]; spleen): 0.9 | Kp at 0.5 h ([1]; spleen): 2 | concentration in heart ([1]; heart, time 0.25 (15 min) after i.g. 10 mg/kg IMMH-010 maleate): 17.3 ± 10.5 ng/ml or ng/g | concentration in heart ([1]; heart, time 0.5 (30 min) after i.g. 10 mg/kg IMMH-010 maleate): 38.1 ± 25.8 ng/ml or ng/g | concentration in heart ([1]; heart, time 4 (4 h) after i.g. 10 mg/kg IMMH-010 maleate): 1.92 ± 2.66 ng/ml or ng/g | concentration in kidney [1, 4]: BLQ | concentration in kidney [1, 5]: BLQ | concentration in kidney [1, 6]: BLQ | concentration in liver ([1]; liver, time 0.25 (15 min) after i.g. 10 mg/kg IMMH-010 maleate): 12.4 ± 13.4 ng/ml or ng/g | concentration in liver ([1]; liver, time 0.5 (30 min) after i.g. 10 mg/kg IMMH-010 maleate): 25.6 ± 19.8 ng/ml or ng/g | concentration in liver ([1]; liver, time 4 (4 h) after i.g. 10 mg/kg IMMH-010 maleate): 6.30 ± 5.77 ng/ml or ng/g | concentration in lung ([1]; lung, time 0.25 (15 min) after i.g. 10 mg/kg IMMH-010 maleate): BLQ | concentration in lung ([1]; lung, time 0.5 (30 min) after i.g. 10 mg/kg IMMH-010 maleate): 1.37 ± 3.06 ng/ml or ng/g | concentration in lung ([1]; lung, time 4 (4 h) after i.g. 10 mg/kg IMMH-010 maleate): BLQ | concentration in lymph ([1]; lymph, time 0.25 (15 min) after i.g. 10 mg/kg IMMH-010 maleate): 5.46 ± 5.1 ng/ml or ng/g | concentration in lymph ([1]; lymph, time 0.5 (30 min) after i.g. 10 mg/kg IMMH-010 maleate): 84.6 ± 87.9 ng/ml or ng/g | concentration in lymph ([1]; lymph, time 4 (4 h) after i.g. 10 mg/kg IMMH-010 maleate): 12.5 ± 7.1 ng/ml or ng/g | concentration in plasma [1, 4]: 3.23 ± 2.28 ng/ml or ng/g | concentration in plasma [1, 5]: 3.99 ± 3.45 ng/ml or ng/g | concentration in plasma [1, 6]: BLQ | concentrations in tissues at 12 h ([1]; rat tissues, 12 h after oral 10 mg/kg IMMH-010 maleate): below the LLOQ | concentration in spleen ([1]; spleen, time 0.25 (15 min) after i.g. 10 mg/kg IMMH-010 maleate): 2.98 ± 2.77 ng/ml or ng/g | concentration in spleen ([1]; spleen, time 0.5 (30 min) after i.g. 10 mg/kg IMMH-010 maleate): 8.08 ± 8.51 ng/ml or ng/g | concentration in spleen ([1]; spleen, time 4 (4 h) after i.g. 10 mg/kg IMMH-010 maleate): 0.848 ± 1.896 ng/ml or ng/g | concentration in thymus [1, 4]: BLQ | concentration in thymus [1, 5]: BLQ | concentration in thymus [1, 6]: BLQ | excretion in feces, % Of administered dose ([2]; time 24 h): 6.97 ± 5.69 % Of administered dose | excretion in feces, % Of administered dose ([2]; time 48 h): 7.99 ± 5.66 % Of administered dose | share of the dose recovered in the urine and feces as this analyte ([2]; urine and feces within 72 h, rats, oral IMMH-010 maleate): 7.99% | AUC(0-t) [3, 7]: 8.5 ± 3.67 ng·h/mL | Cmax [3, 7]: 8.45 ± 3.27 ng/mL | MRT last [3, 7]: 0.8 ± 0.13 h | Tmax [3, 7]: 0.5 h | AUC(0-inf) [3, 8]: 44.1 ± 20.6 ng·h/mL | AUC(0-t) [3, 8]: 37.5 ± 13.5 ng·h/mL | Cmax [3, 8]: 28.4 ± 13 ng/mL | MRT last [3, 8]: 1.09 ± 0.21 h | MRT inf [3, 8]: 1.49 ± 0.3 h | Tmax [3, 8]: 0.5 h | AUC(0-inf) [3, 9]: 134 ± 45.7 ng·h/mL | AUC(0-t) [3, 9]: 129 ± 45.6 ng·h/mL | Cmax [3, 9]: 71.4 ± 34 ng/mL | MRT last [3, 9]: 1.82 ± 0.53 h | MRT inf [3, 9]: 2.11 ± 0.69 h | Tmax [3, 9]: 0.5 h | half-life ([3]; 30 mg/kg, single i.g. IMMH-010 maleate 30 mg/kg): 0.98 ± 0.28 h | half-life ([3]; 100 mg/kg, single i.g. IMMH-010 maleate 100 mg/kg): 1.63 ± 0.49 h | dose dependence of AUC ([3]; dose range 10–100 mg/kg IMMH-010 maleate, oral): proportional to the dose
SMILES: CC(C)OC(=O)C(CO)NCc1cc(Cl)c(OCc2cccc(-c3ccccc3)c2Br)cc1OCc1cccnc1 (centres unmarked) [IMMH-010, 2-[4-(2-bromo-biphenyl-3-ylmethoxy)-5-chloro-2-(pyridin-3-ylmethoxy)-benzylamino]-3-hydroxy-propionic acid isopropyl ester]
tissues of main distribution ([1]; rats, oral 10 mg/kg IMMH-010 maleate): adrenal gland, followed by the lymph, heart, liver and spleen | excretion in feces, % Of administered dose ([2]; time 72 h): 7.99 % Of administered dose and 7.99 ± 5.66 % Of administered dose
